# Results as given in patent US7857804B2, “Use of Bcl inhibitors for the prevention of fibroproliferative reclosure of dilated blood vessels and other iatrogenic fibroproliferative disorders” (priority 2006, dated 2010).
# Tests used:
# [1] = tested on: cell line R1 (human cell line derived from carotid artery atherosclerotic lesion); assay: MTT cell survival after fas ligation (CH11), cell line R1; type: cell-based
# Method: (§1) Cells for study were derived from human carotid artery atherosclerotic lesions, by published methods. Additionally, cell lines were subcloned and tested for sensitivity to fas ligation. In the present studies, clonal lines with known resistance to fas ligation were used.
# (§2) Induction of apoptosis was achieved by reduction of serum concentration from 10% to 1% FBS for 24 hours prior to adding an activating antibody to fas (CH11, Upstate Biotechnology) at a typical concentration of 50-500 ng/ml. Typically 24-48 hours after fas ligation by CH11, cell survival was determined by measuring metabolic activity by the MTT method.
# However, in the presence of fas, the cells pretreated with BCLI underwent a high degree of apoptosis (70% cell death). […] Thus, the drug is neither toxic nor capable of inducing apoptosis alone at this concentration.
# Referring to FIG. 1, A human cell line derived from carotid artery atherosclerotic lesion was plated at known density and then subgroups of 3 wells were treated with various drugs prior to exposure to fas ligation by the activating CH11 antibody (+fas). Pretreatment with flavopiridol (Flavo, 50 nM) or BCLI (Bcl-inh, 20 μM or 100 μM) was followed 24 hours later by addition of CH11 activating antibody to fas (50 ng/ml). After fas ligation, cell survival was evaluated 24 hours later by measuring the number of viable cells using the metabolic dye MTT, which is converted to a blue dye that absorbs at 570 nm. Values reflect the mean±s.e.m. (n=3 per group).
# [2] = tested on: R1GFP (human atherosclerosis-derived cell line with known resistance to fas ligation); assay: MTT cell survival after fas ligation (CH11), GFP-only expressing cell line; type: cell-based; conditions: for effect on cell survival in the absence of fas (drug alone): AA3 20 μg/ml, no CH11
# Method: as §1, §2
# In addition to the BCL-inhibitor, this sensitizing effect was also observed with AA. As above, a human atherosclerosis-derived cell line with known resistance to fas ligation was used for study. In this case, the cell line was stably infected with a retrovirus expressing either an irrelevant marker gene (green fluorescent protein, GFP) or the marker gene and Bcl-Xl. In the GFP-only expressing cell line (R1GFP), fas ligation (50 ng/ml CH11) in low serum (1% FBS) led to only 15% cell death (85% survival) (see FIG. 2).
# (§3) Referring to FIG. 2, human atherosclerosis-derived cells were pretreated with the specified drugs for 24 prior to treatment with the activating fas antibody CH11 (50 ng/ml). […] The drugs used were AA (20 μg/ml), BCLI (20 μM), interferon-gamma (IFN, 50 U/ml), and SP600125 (SP, 20 μM). The upper panel reports the MTT optical density (absorbance at 570 nm) without (control) or with fas ligation (+fas) as the mean, with error bars indicating±standard error of measurement (s.e.m., n=3 per group). The lower panel expresses % survival based on the MTT values above (MTT+fas/MTT Control)×100.
# [3] = tested on: R1 cells over-expressing Bcl-Xl (R1 bclXL); assay: MTT cell survival after fas ligation (CH11), R1 cells over-expressing Bcl-Xl; type: cell-based, human; conditions: AA 20 μg/ml; BCLI 20 μM; IFN 50 U/ml; SP 20 μM; CH11 50 ng/ml
# Method: as §2
# In one example, to determine whether the effect of BCLI and AA was via interaction with their intended targets (Bcl-Xl and Bcl-2), the drugs were tested in R1 cells over-expressing Bcl-Xl (R1 bclXL).
# as §3
# Human lesion cells = assay: MTT assay for sensitivity to fas-induced apoptosis in human lesion cells; type: cell-based; conditions: for death with fas ligation (sensitivity to apoptosis): 24 h, 20% death without drug
# Method: as §1, §2
# FIG. 3 depicts the effect of 2-methoxy-antimycin A3 (AA3) and gossypol on the sensitivity to apoptosis in human lesion cells. Human lesion cells were plated and treated as above for 24 hours with the specified concentrations of drug. Fas ligation was initiated with 50 ng/ml of activating antibody CH11 and 24 hours later the number of cell surviving was measured by their metabolism of MTT. Bars are mean±s.d. (n=4 per group). A reduction in MTT levels indicates cell death.
# FIG. 4 depicts the effect of HA14-1 and 2,3-DCPE on sensitivity to fas-induced apoptosis. Human lesion cells were plated and treated as above for 24 hours with the specified concentrations […] of HA14-1 (H) or 2,3-DCPE (D). Fas ligation was initiated with 50 ng/ml of activating antibody CH11 and 24 hours later the number of cell surviving was measured by their metabolism of MTT. Bars are mean±s.d. (n=2 per group). A reduction in MTT levels indicates cell death.
compound,measurement,setting,value
"2,9-dimethoxy-11,12-dihydrodibenzo[c,g][1,2]-diazocine 5,6-dioxide (A) and 5,5′-Dimethoxy-2,2′-dinitrosobenzyl (B) [BCLI]",effect upon cell survival in the absence of the activating antibody to fas,"[1]; 20 μM, no CH11",little or no effect
same,effect on cell survival in the absence of fas ligation,"[1]; 100 μM, no CH11",substantial effect on cell survival
same,cell death (apoptosis) in the presence of fas,"[1]; BCLI pretreatment 20 μM, 24 h, CH11 50 ng/ml, MTT 24 h later",70%
same,effect on cell survival in the absence of fas (drug alone),[2]; BCLI 20 μM,slightly more apoptosis alone
same,effectiveness in Bcl-Xl over-expressing cells compared with GFP control cells,[3],markedly less effective
"CCCC[C@H]1C(=O)O[C@H](C)[C@H](NC(=O)c2cccc(NC=O)c2OC)C(=O)O[C@@H](C)[C@@H]1OC(=O)CC(C)C [AA3, 2-methoxyantimycin A3]",apoptosis in the presence of fas,"[2]; 24 hour pretreatment 20 μg/ml, CH11 50 ng/ml, 1% FBS",70%
same,effect on cell survival in the absence of fas (drug alone),[2]; BCLI 20 μM,only a small effect on cell survival
same,death with fas ligation (sensitivity to apoptosis),"Human lesion cells; 10 μg/ml, CH11 50 ng/ml",80%
same,death with fas ligation (sensitivity to apoptosis),"Human lesion cells; 20 μg/ml, CH11 50 ng/ml",80%
same,death in the absence of fas ligation,"Human lesion cells; AA3 at higher concentrations (above 20 μg/ml), no fas ligation",induced death even in the absence of fas ligation
"Cl.OCCNCCCOc1cccc(Cl)c1Cl [DCPE, 2,[[3-(2,3-dichlorophenoxy)propyl]amino]ethanol-HCl]",fas-dependent sensitization to apoptosis,"Human lesion cells; only at the highest tested dose of 100 μM, CH11 50 ng/ml",significant fas-dependent sensitization to apoptosis
"Cc1cc2c(C(C)C)c(O)c(O)c(C=O)c2c(O)c1-c1c(C)cc2c(C(C)C)c(O)c(O)c(C=O)c2c1O [Gossypol, 2,2′-bis(8-Formyl-1,6,7-trihydroxy-5-isopropyl-3-methylnaphthalene)]",survival in the presence of fas,"Human lesion cells; 2.5 μM, CH11 50 ng/ml, 80% survival without drug",50%
"CCOC(=O)C1=C(N)Oc2ccc(Br)cc2C1C(C#N)C(=O)OCC (centres unmarked) [HA14-1, Ethyl-2-amino-6-bromo-4-(1-cyano-2-ethoxy-2-oxoethyl)-4H-chromene-3-carboxylate]",fas-independent death-inducing effect,Human lesion cells; 25-100 μM,fas-independent death-inducing effect
same,ability to sensitize cells to fas-induced apoptosis,"Human lesion cells; HA14-1, all tested concentrations, CH11 50 ng/ml",did not demonstrate any ability to sensitize cell to apoptosis
Antimycin A [AA],effectiveness in Bcl-Xl over-expressing cells compared with GFP control cells,[3],markedly less effective
"interferon-gamma: interferon-gamma, a known sensitizing agent",sensitizing effect to fas ligation (in words),"[2]; BCLI 20 μM, interferon-gamma 50 U/ml, SP600125 20 μM, CH11 50 ng/ml",comparable effect
same,effectiveness in Bcl-Xl over-expressing cells compared with GFP control cells,[3],less effective
